The text below walks through data of patent US12304899B2, “Factor XI activation inhibitors” (Merck Sharp & Dohme LLC, priority 2019, dated 2025).

T1 sequence (P03951 19-625): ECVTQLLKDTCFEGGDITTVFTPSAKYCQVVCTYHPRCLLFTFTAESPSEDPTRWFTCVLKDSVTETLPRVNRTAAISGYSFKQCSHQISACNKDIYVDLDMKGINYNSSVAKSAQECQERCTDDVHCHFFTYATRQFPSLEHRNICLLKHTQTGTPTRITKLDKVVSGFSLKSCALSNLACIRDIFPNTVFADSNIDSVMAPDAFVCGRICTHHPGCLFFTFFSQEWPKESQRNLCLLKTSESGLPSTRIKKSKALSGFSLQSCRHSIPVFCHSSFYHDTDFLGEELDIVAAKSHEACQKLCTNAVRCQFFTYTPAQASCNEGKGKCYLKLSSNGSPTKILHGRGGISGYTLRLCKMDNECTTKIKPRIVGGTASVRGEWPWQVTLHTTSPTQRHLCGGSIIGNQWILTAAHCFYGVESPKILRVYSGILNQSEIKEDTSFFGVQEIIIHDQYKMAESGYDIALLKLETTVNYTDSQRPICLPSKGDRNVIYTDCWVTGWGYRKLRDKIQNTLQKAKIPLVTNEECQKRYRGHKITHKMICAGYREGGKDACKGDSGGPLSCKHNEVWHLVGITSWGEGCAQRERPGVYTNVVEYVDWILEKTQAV

The test addresses T1, Human coagulation factor (F)XI (Homo sapiens, UniProt P03951).
T1 construct: purchased Haematologic Technologies Inc. (FXI); Enzyme Research Laboratories (FXIIa) HCXI-150 (FXI); HFXIIa (FXIIa)
As to the kind of experiment: Inhibition of FXIIa mediated activation of FXI (activation of human Factor XI to XIa by human Factor α-XIIa). The note with it: human FXI pre-incubated with compound 30 min at 22° C., activation by human FXIIa 60 min, z-GPR-AFC substrate fluorescence, 4 parameter logistic fit; read-out: Inhibition of FXIIa meditated activation of FXI. Type of test: biochemical. As for the experimental part:
Inhibition of FXIIa Mediated Activation of FXI
Activation of Human Factor XI to XIa by Human Factor α-XIIa
The assay was performed in 50 mM HEPES, 150 mM NaCl, 5 mM CaCl2, 0.1% PEG-8000, pH 7.4 buffer in black, flat-bottom, polystyrene microplates (Corning, Cat #3573). Serial dilutions (10-point, 3.333-fold) of the test compounds delivered as 10 mM DMSO stocks were prepared in the Labcyte Echo-qualified PP 384 well microplates (Labcyte, Cat #P-05525). Human coagulation factor (F)XI (Haematologic Technologies Inc., Cat #HCXI-150, concentration 46 nM, 19.5 uL) was pre-incubated with 0.5 uL of the test compounds for 30 min at 22° C. The activation was initiated by addition of 10 uL of human coagulation factor (F)XIIa (Enzyme Research Laboratories, Cat #HFXIIa, concentration 30 nM) and the reaction proceeded for 60 min at 22° C., after which it was quenched by addition of a selective inhibitor of FXIIa (Compound 54 in International Patent Publication WO2018093695) concentration 600 uM in DMSO, 1 uL). 10 min after the quench, 29 uL of z-GPR-AFC substrate (Sigma, Cat #C0980-10 MG, concentration 200 uM) was added into each well and the detection reaction proceeded for 60 min at 22° C. Fluorescence at 405/510 nm was measured in end-point mode using an Envision plate-reader (Perkin Elmer). IDBS Activity Base XE (ABase) analysis using 4 parameter logistic fit was performed to determine Minimum, Maximum, EC50, and Slope Factor for each compound.
For `N#CC1(n2cccn2)CCN(C(=O)c2cc(C(=O)N3CCCCC3)c3cc(OCc4nc5ccccc5s4)ccc3n2)CC1` [Example 58, 1-(6-(benzo[d]thiazol-2-ylmethoxy)-4-(piperidine-1-carbonyl)quinoline-2-carbonyl)-4-(1H-pyrazol-1-yl)piperidine-4-carbonitrile], the EC50 came out at 33.7 nM.

Consider `O=C(c1cc(C(=O)N2CCCC(F)(F)C2)c2cc(OCc3nc4ccccc4s3)ccc2n1)N1CCC(n2cccn2)CC1` [Example 53, (4-(1H-pyrazol-1-yl)piperidin-1-yl)(6-(benzo[d]thiazol-2-ylmethoxy)-4-(3,3-difluoro-piperidine-1-carbonyl)quin-olin-2-yl)methanone], for which the EC50 came to 62.6 nM.

Take `COc1ccc(COc2ccc3nc(C(=O)N4CCC(C#N)(c5ccccc5)CC4)cc(C(=O)N4CCCCC4)c3c2)c(C(F)(F)F)c1` [Example 42, 1-(6-((4-methoxy-2-(tri-fluoromethyl)benzyl)oxy)-4-(piperidine-1-carbonyl)quin-oline-2-carbonyl)-4-phenyl-piperidine-4-carbonitrile]: the EC50 amounted to 48.7 nM.

Regarding `O=C(c1cc(C(=O)N2CCCCC2)c2cc(OCCCc3cccnc3)ccc2n1)N1CCC(n2cccn2)CC1` [Example 8, (4-(1H-pyrazol-1-yl)piperidin-1-yl)(4-(piperidine-1-carbon-yl)-6-(3-(pyridin-3-yl)pro-poxy)quinolin-2-yl)methanone], the EC50 amounted to 18.8 nM.

For the compound `O=C(c1cc(C(=O)N2CCCCC2)c2cc(OCc3ccc4snnc4c3)ccc2n1)N1CCC(n2cccn2)CC1` [Example 7, (4-(1H-pyrazol-1-yl)piperidin-1-yl)(6-(benzo[d][1,2,3]thiadiazol-5-ylmethoxy)-4-(piperidine-1-carbonyl)quinolin-2-yl)methanone], the EC50 is 19.5 nM.

In the case of `O=C(c1cc(C(=O)N2CCCCC2)c2cc(OCc3ncc(C(F)(F)F)cc3Cl)ccc2n1)N1CCC(n2cccn2)CC1` [Example 12, (4-(1H-pyrazol-1-yl)piperidin-1-yl)(6-((3-chloro-5-(trifluoro-methyl)pyridin-2-yl)methoxy)-4-(piperidine-1-carbonyl)-quinolin-2-yl)methanone], the EC50 stood at 16.8 nM.

For the compound `Cn1c(COc2ccc3nc(C(=O)N4CCC(C#N)(c5ccccc5)CC4)cc(C(=O)N4CCCCC4)c3c2)nc2ccccc21` [Example 50, 1-(6-((1-methyl-1H-benzo[d]-imidazol-2-yl)methoxy)-4-(piperidine-1-carbonyl)quin-oline-2-carbonyl)-4-phenyl-piperidine-4-carbonitrile], the EC50 is 33.1 nM.

For the compound `O=C(c1cc(C(=O)N2CCCCC2)c2cc(OCc3nc4ccccc4o3)ccc2n1)N1CCC(n2cccn2)CC1` [Example 23, (4-(1H-pyrazol-1-yl)piperidin-1-yl)(6-(benzo[d]oxazol-2-ylmethoxy)-4-(piperidine-1-carbonyl)quinolin-2-yl) methanone], the EC50 came to 36.6 nM.

Turning to `N#Cc1ccc(COc2ccc3nc(C(=O)N4CCC(n5cccn5)CC4)cc(C(=O)N4CCCCC4)c3c2)cc1F` [Example 13, 4-(((2-(4-(1H-pyrazol-1-yl)-piperidine-1-carbonyl)-4-(piperidine-1-carbonyl)-quinolin-6-yl)oxy)methyl)-2-fluorobenzonitrile], the EC50 came out at 20 nM.

With `Cn1c(COc2ccc3nc(C(=O)N4CCC(n5cccn5)CC4)cc(C(=O)N4CCCCC4)c3c2)nc2ccccc21` [Example 24, (4-(1H-pyrazol-1-yl)piperidin-1-yl)(6-((1-methyl-1H-benzo-[d]imidazol-2-yl)methoxy)-4-(piperidine-1-carbonyl)-quinolin-2-yl)methanone], the EC50 amounted to 28.9 nM.

Consider `N#Cc1ccc(F)cc1COc1ccc2nc(C(=O)N3CCC(C#N)(c4ccccc4)CC3)cc(C(=O)N3CCCCC3)c2c1` [Example 44, 1-(6-((2-cyano-5-fluoro-benzyl)oxy)-4-(piperidine-1-carbonyl)quinoline-2-carbon-yl)-4-phenylpiperidine-4-carbonitrile], for which the EC50 came to 44.6 nM.

In the case of `N#CC1(c2ccccc2)CCN(C(=O)c2cc(C(=O)N3CCCCC3)c3cc(OCc4ccc(-c5nnco5)cc4)ccc3n2)CC1` [Example 34, 1-(6-((4-(1,3,4-oxadiazol-2-yl)benzyl)oxy)-4-(piperidine-1-carbonyl)quinoline-2-car-bonyl)-4-phenylpiperidine-4-carbonitrile], the EC50 was found to be 41.4 nM.

As to `N#Cc1ccc(COc2ccc3nc(C(=O)N4CCC(n5cccn5)CC4)cc(C(=O)N4CCCCC4)c3c2)c(F)c1` [Example 16, 4-(((2-(4-(1H-pyrazol-1-yl)-piperidine-1-carbonyl)-4-(piperidine-1-carbonyl)-quinolin-6-yl)oxy)methyl)-3-fluorobenzonitrile], the EC50 was 32.9 nM.

As to `N#CC1(c2ccccc2)CCN(C(=O)c2cc(C(=O)N3CCCCC3)c3cc(OCc4ccc(C(F)(F)F)cc4)ccc3n2)CC1` [Example 38, 4-phenyl-1-(4-(piperidine-1-carbonyl)-6-((4-(trifluoro-methyl)benzyl)oxy)quin-oline-2-carbonyl)piperidine-4-carbonitrile], the EC50 was determined as 49.5 nM.

On to `N#CC1(c2ccccc2)CCN(C(=O)c2cc(C(=O)N3CCCCC3)c3cc(OCc4cn5ccccc5n4)ccc3n2)CC1` [Example 47, 1-(6-(imidazo[1,2-a]pyridin-2-ylmethoxy)-4-(piperidine-1-carbonyl)quinoline-2-carbonyl)-4-phenylpiperi-dine-4-carbonitrile], for which the EC50 came out at 13.8 nM.

On to `N#Cc1ccccc1COc1ccc2nc(C(=O)N3CCC(C#N)(c4ccccc4)CC3)cc(C(=O)N3CCCCC3)c2c1` [Example 30, 1-(6-((2-cyanobenzyl)oxy)-4-(piperidine-1-carbonyl)quin-oline-2-carbonyl)-4-phenyl-piperidine-4-carbonitrile], for which the EC50 came out at 30.1 nM.

Take `O=C(c1cc(C(=O)N2CCC(F)CC2)c2cc(OCc3nc4ccccc4s3)ccc2n1)N1CCC(n2cccn2)CC1` [Example 52, (4-(1H-pyrazol-1-yl)piperidin-1-yl)(6-(benzo[d]thiazol-2-ylmethoxy)-4-(4-fluoropiperidine-1-carbonyl)quinolin-2-yl)methanone]: the EC50 was 28.3 nM.

For `CC(=O)NC1CC2(CCN(C(=O)c3cc(C(=O)N4CCCCC4)c4cc(OCc5nc6ccccc6s5)ccc4n3)CC2)C1` [Example 73, N-(7-(6-(benzo[d]thiazol-2-ylmethoxy)-4-(piperi-dine-1-carbonyl)quinoline-2-carbonyl)-7-azaspiro-[3.5]nonan-2-yl)acetamide], the EC50 stood at 38.5 nM.

Regarding `Cc1c(COc2ccc3nc(C(=O)N4CCC(C#N)(c5ccccc5)CC4)cc(C(=O)N(C)C)c3c2)ccc2c1COC2=O` [Example 3, 2-(4-cyano-4-phenylpiperidine-1-carbonyl)-N,N-dimethyl-6-((4-methyl-1-oxo-1,3-dihydroisobenzofuran-5-yl)methoxy)quinoline-4-carboxamide], the EC50 was 39.6 nM.

With `O=C(c1cc(C(=O)N2CCCCC2)c2cc(OCc3cn4c(F)cccc4n3)ccc2n1)N1CCC(n2cccn2)CC1` [Example 11, (4-(1H-pyrazol-1-yl)piperidin-1-yl)(6-((5-fluoroimidazo[1,2-a]pyridin-2-yl)methoxy)-4-(piperidine-1-carbonyl)-quinolin-2-yl)methanone], the EC50 worked out at 35.1 nM.

With `N#CC1(c2ccccc2)CCN(C(=O)c2cc(C(=O)N3CCCCC3)c3cc(OCc4ccccn4)ccc3n2)CC1` [Example 48, 4-phenyl-1-(4-(piperidine-1-carbonyl)-6-(pyridin-2-yl-methoxy)quinoline-2-carbon-yl)piperidine-4-carbonitrile], the EC50 worked out at 44.9 nM.

With `N#CC1(c2ccccc2)CCN(C(=O)c2cc(C(=O)N3CCCCC3)c3cc(OCc4nc5ccccc5s4)ccc3n2)CC1` [Example 49, 1-(6-(benzo[d]thiazol-2-yl-methoxy)-4-(piperidine-1-carbonyl)quinoline-2-carbonyl)-4-phenylpiperi-dine-4-carbonitrile], the EC50 was determined as 15 nM.

On to `N#CC1(c2ccccc2)CCN(C(=O)c2cc(C(=O)N3CCCCC3)c3cc(OCc4nc5ccccc5s4)ccc3n2)CC1` [Example 60, 1-(6-(benzo[d]thiazol-2-yl-methoxy)-4-(piperidine-1-carbonyl)quinoline-2-car-onyl)-4-phenylpiperidine-4-carbonitrile], for which the EC50 is 37.7 nM.

As for `Cc1c(COc2ccc3nc(C(=O)N4CCC(C)(O)C4)cc(C(=O)N4CCCCC4)c3c2)ccc2c1COC2=O` (single isomer, unassigned) [Example 5b, 5-(((2-(3-hydroxy-3-methylpyrrolidine-1-carbonyl)-4-(piperidine-1-carbonyl)quinolin-6-yl)oxy)methyl)-4-methylisobenzofuran-1(3H)-one], the EC50 was 38.8 nM.
